How the values were obtained:
[1] = biological target: T1, Human CB2 (Homo sapiens, UniProt P34972); assay: Human CB2 Radioligand Binding Assay; settings: membranes from stably transfected CHO CB2 cells; competition with [3H] CP-55,940; read-out: CB2 Ligand Binding Asssay
T1 construct: expressed in transfected cells; membrane preparation
Procedure, shortened: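 Filtration competition against [3H]CP-55,940 at its Kd on membranes from CHO cells stably expressing human CB2; compounds at 10 uM single point or dose-response, 1% DMSO. Buffer 50 mM Tris-HCl pH 7.4, EGTA, MgCl2, 5.0 mg/ml BSA; 90 min at 30° C, scintillation read; 100 nM CP-55,940 = 100%.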

[2] = biological target: T2, human cannabinoid receptor type 1 (Homo sapiens, UniProt P21554); assay: Human CB1 Radioligand Binding Assay (basis of selectivity CB2 vs. CB1)
T2 construct: purchased Perkin Elmer RBHCB1M; host or cells: HEK 293 EBNA cells
T2 sequence (P21554 whole entry): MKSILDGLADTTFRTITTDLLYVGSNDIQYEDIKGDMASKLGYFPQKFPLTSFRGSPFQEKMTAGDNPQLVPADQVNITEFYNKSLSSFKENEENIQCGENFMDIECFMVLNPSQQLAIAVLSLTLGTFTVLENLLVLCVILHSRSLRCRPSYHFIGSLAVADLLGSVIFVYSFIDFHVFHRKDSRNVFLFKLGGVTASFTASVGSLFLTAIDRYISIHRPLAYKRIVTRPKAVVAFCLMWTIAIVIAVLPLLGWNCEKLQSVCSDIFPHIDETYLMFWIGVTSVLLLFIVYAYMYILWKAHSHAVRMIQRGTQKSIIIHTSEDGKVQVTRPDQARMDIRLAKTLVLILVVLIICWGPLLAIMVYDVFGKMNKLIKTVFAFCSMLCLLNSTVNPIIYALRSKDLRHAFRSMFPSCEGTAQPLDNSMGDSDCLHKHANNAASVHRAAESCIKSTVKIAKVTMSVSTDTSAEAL
Procedure, shortened: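 Filtration competition binding against [3H] CP-55,940 at its Kd, using membranes from HEK 293 EBNA cells expressing human CB1; 90 minutes at 30° C in 50 mM Tris-HCl pH 7.4, 2.5 mM EDTA, 5 mM MgCl2, 5.0 mg/ml BSA, 1% DMSO. Single point 10 uM or dose-response; 100 nM CP-55,940 defined 100% efficacy.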

T1 sequence (P34972 whole entry): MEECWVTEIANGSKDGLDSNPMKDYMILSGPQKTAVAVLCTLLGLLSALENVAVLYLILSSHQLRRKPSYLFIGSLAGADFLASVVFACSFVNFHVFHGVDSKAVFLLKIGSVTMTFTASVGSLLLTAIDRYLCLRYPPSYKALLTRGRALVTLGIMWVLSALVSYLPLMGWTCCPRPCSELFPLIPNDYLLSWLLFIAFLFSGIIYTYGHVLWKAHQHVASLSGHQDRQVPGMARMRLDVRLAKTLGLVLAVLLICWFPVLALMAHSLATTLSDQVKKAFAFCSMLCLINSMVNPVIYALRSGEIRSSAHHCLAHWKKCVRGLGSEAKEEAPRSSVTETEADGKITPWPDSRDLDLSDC

| SMILES | IC50 (radioligand displacement) [1] [nM] | Selectivity, CB2 vs. CB1 [2] |
| --- | --- | --- |
| CC(C)(C)c1ccc(C2c3cccn3CCCN2C(=O)CN2CCOCC2)cc1 (centres unmarked) [Example 52, 1-(1-(4-tert-Butylphenyl)-4,5-dihydro-1H-pyrrolo[1,2-a][1,4]diazepin-2(3H)-yl)-2-morpholinoethanone] | > 1000 | − (− indicates < 10-fold) |
| CC(C)(C)c1ccc(C2c3cccn3CCCN2c2nc3ccccc3o2)cc1 (centres unmarked) [Example 53, 2-(1-(4-tert-Butylphenyl)-4,5-dihydro-1H-pyrrolo[1,2-a][1,4]diazepin-2(3H)-yl)benzo[d]oxazole] | > 1000 | − (− indicates < 10-fold) |
| CC(C)(C)c1ccc(Cc2ccc3n2CCCN3c2nc3ccccc3o2)cc1 [Example 54, 2-(6-(4-tert-Butylbenzyl)-3,4-dihydropyrrolo[1,2-a]pyrimidin-1(2H)-yl)benzo[d]oxazole] | > 1000 | − (− indicates < 10-fold) |
| CC(C)(C)c1ccc(C2=C(C(=O)Nc3ccc(F)cc3F)CCn3cccc32)cc1 [Example 56, 8-(4-tert-Butylphenyl)-N-(2,4-difluorophenyl)-5,6-dihydroindolizine-7-carboxamide] | > 1000 | − (− indicates < 10-fold) |
| CC(C)(C)c1ccc(C2=C(C(=O)Nc3ccc(Cl)cc3Cl)CCn3cccc32)cc1 [Example 57, 8-(4-tert-Butylphenyl)-N-(2,4-dichlorophenyl)-5,6-dihydroindolizine-7-carboxamide] | > 1000 | − (− indicates < 10-fold) |
| CC(C)(C)c1ccc(C2=C(C(=O)Nc3ccc(OC(F)(F)F)cc3)CCn3cccc32)cc1 [Example 58, 8-(4-tert-Butylphenyl)-N-(4-(trifluoromethoxy)phenyl)-5,6-dihydroindolizine-7-carboxamide] | > 1000 | − (− indicates < 10-fold) |
| CC(C)(C)c1ccc(C2=C(C(=O)Nc3ccc(F)c(F)c3)CCn3cccc32)cc1 [Example 59, 8-(4-tert-Butylphenyl)-N-(3,4-difluorophenyl)-5,6-dihydroindolizine-7-carboxamide] | < 1000 | + (+ indicates > 10-fold) |
| CC(C)(C)c1ccc(C2=C(C(=O)Nc3ccc(Cl)cc3)CCn3cccc32)cc1 [Example 60, 8-(4-tert-Butylphenyl)-N-(4-chlorophenyl)-5,6-dihydroindolizine-7-carboxamide] | < 1000 | − (− indicates < 10-fold) |
| CC(C)(C)c1ccc(C2=C(C(=O)Nc3ccc(F)cc3F)CCCn3cccc32)cc1 [Example 62, (E)-9-(4-tert-Butylphenyl)-N-(2,4-difluorophenyl)-6,7-dihydro-5H-pyrrolo[1,2-a]azepine-8-carboxamide] | < 1000 | − (− indicates < 10-fold) |
| CC(C)(C)c1ccc(C2=C(C(=O)Nc3ccc(Cl)cc3Cl)CCCn3cccc32)cc1 [Example 63, (E)-9-(4-tert-Butylphenyl)-N-(2,4-dichlorophenyl)-6,7-dihydro-5H-pyrrolo[1,2-a]azepine-8-carboxamide] | < 1000 | − (− indicates < 10-fold) |
| CC(C)(C)c1ccc(C2=C(C(=O)Nc3ccc(C(F)(F)F)cc3)CCCn3cccc32)cc1 [Example 64, (E)-9-(4-tert-Butylphenyl)-N-(4-(trifluoromethyl)phenyl)-6,7-dihydro-5H-pyrrolo[1,2-a]azepine-8-carboxamide] | < 1000 | − (− indicates < 10-fold) |
| CC(C)(C)c1ccc(C2=C(C(=O)Nc3ccc(F)c(F)c3)CCCn3cccc32)cc1 [Example 65, (E)-9-(4-tert-Butylphenyl)-N-(3,4-difluorophenyl)-6,7-dihydro-5H-pyrrolo[1,2-a]azepine-8-carboxamide] | < 1000 | + (+ indicates > 10-fold) |
| CC(C)(C)c1ccc(C2=C(C(=O)Nc3ccc(Cl)cc3)CCCn3cccc32)cc1 [Example 66, (E)-9-(4-tert-Butylphenyl)-N-(4-chlorophenyl)-6,7-dihydro-5H-pyrrolo[1,2-a]azepine-8-carboxamide] | < 1000 | + (+ indicates > 10-fold) |
| O=C(Nc1ccc(F)cc1F)C1=C(c2ccccc2)c2cccn2CCC1 [Example 73, (E)-N-(2,4-Difluorophenyl)-9-phenyl-6,7-dihydro-5H-pyrrolo[1,2-a]azepine-8-carboxamide] | > 1000 | − (− indicates < 10-fold) |
| O=C(Nc1ccc(C(F)(F)F)cc1)C1=C(c2ccccc2)c2cccn2CCC1 [Example 74, (E)-9-Phenyl-N-(4-(trifluoromethyl)phenyl)-6,7-dihydro-5H-pyrrolo[1,2-a]azepine-8-carboxamide] | > 1000 | − (− indicates < 10-fold) |
| O=C(Nc1ccc(F)c(F)c1)C1=C(c2ccccc2)c2cccn2CCC1 [Example 75, (E)-N-(3,4-Difluorophenyl)-9-phenyl-6,7-dihydro-5H-pyrrolo[1,2-a]azepine-8-carboxamide] | < 1000 | − (− indicates < 10-fold) |
| CC(C)(C)c1ccc(C2=C(C(=O)Nc3ccc(Cl)cc3)CCCn3cncc32)cc1 [Example 77, (E)-9-(4-tert-Butylphenyl)-N-(4-chlorophenyl)-6,7-dihydro-5H-imidazo[1,5-a]azepine-8-carboxamide] | > 1000 | − (− indicates < 10-fold) |
| CC(C)(C)c1ccc(C2=C(C(=O)Nc3ccc(F)cc3F)CCCn3cncc32)cc1 [Example 78, ((E)-9-(4-tert-Butylphenyl)-N-(2,4-difluorophenyl)-6,7-dihydro-5H-imidazo[1,5-a]azepine-8-carboxamide] | > 1000 | − (− indicates < 10-fold) |
| CC(C)(C)c1ccc(C2=C(C(=O)Nc3ccc(Cl)c(Cl)c3)CCCn3cncc32)cc1 [Example 79, (E)-9-(4-tert-Butylphenyl)-N-(3,4-dichlorophenyl)-6,7-dihydro-5H-imidazo[1,5-a]azepine-8-carboxamide] | < 1000 | − (− indicates < 10-fold) |
| CC(C)(C)c1ccc(C2=C(C(=O)Nc3ccc(Cl)cc3Cl)CCCn3cncc32)cc1 [Example 80, (E)-9-(4-tert-Butylphenyl)-N-(2,4-dichlorophenyl)-6,7-dihydro-5H-imidazo[1,5-a]azepine-8-carboxamide] | > 1000 | − (− indicates < 10-fold) |
| CC(C)(C)c1ccc(CC2=C(C(=O)Nc3ccc(Cl)cc3)CCCn3cncc32)cc1 [Example 82, (E)-9-(4-tert-Butylbenzyl)-N-(4-chlorophenyl)-6,7-dihydro-5H-imidazo[1,5-a]azepine-8-carboxamide] | > 1000 | − (− indicates < 10-fold) |
| CC(C)(C)c1ccc(C2=C(NC(=O)Nc3ccc(Cl)cc3)CCCn3cccc32)cc1 [Example 83, (E)-1-(9-(4-tert-Butylphenyl)-6,7-dihydro-5H-pyrrolo[1,2-a]azepin-8-yl)-3-(4-chlorophenyl)urea] | < 1000 | + (+ indicates > 10-fold) |
| CC(C)(C)c1ccc(C2=C(NC(=O)Nc3ccc(F)cc3F)CCCn3cccc32)cc1 [Example 84, (E)-1-(9-(4-tert-Butylphenyl)-6,7-dihydro-5H-pyrrolo[1,2-a]azepin-8-yl)-3-(2,4-difluorophenyl)urea] | < 1000 | + (+ indicates > 10-fold) |
| CC(C)(C)c1ccc(C2=C(NC(=O)Nc3ccc(F)c(F)c3)CCCn3cccc32)cc1 [Example 85, (E)-1-(9-(4-tert-Butylphenyl)-6,7-dihydro-5H-pyrrolo[1,2-a]azepin-8-yl)-3-(3,4-difluorophenyl)urea] | < 1000 | + (+ indicates > 10-fold) |
| CC(C)(C)c1ccc(C2=C(NC(=O)Nc3ccc(Cl)cc3Cl)CCCn3cccc32)cc1 [Example 86, (E)-1-(9-(4-tert-Butylphenyl)-6,7-dihydro-5H-pyrrolo[1,2-a]azepin-8-yl)-3-(2,4-dichlorophenyl)urea] | < 1000 | + (+ indicates > 10-fold) |
| CC(C)(C)c1ccc(C2=C(NC(=O)Nc3ccc(Cl)c(Cl)c3)CCCn3cccc32)cc1 [Example 87, (E)-1-(9-(4-tert-Butylphenyl)-6,7-dihydro-5H-pyrrolo[1,2-a]azepin-8-yl)-3-(3,4-dichlorophenyl)urea] | > 1000 | + (+ indicates > 10-fold) |
| CC(C)(C)c1ccc(C2=C(NC(=O)Nc3ccc(C(F)(F)F)cc3)CCCn3cccc32)cc1 [Example 88, (E)-1-(9-(4-tert-Butylphenyl)-6,7-dihydro-5H-pyrrolo[1,2-a]azepin-8-yl)-3-(4-(trifluoromethyl)phenyl)urea] | < 1000 | + (+ indicates > 10-fold) |
| COc1ccc(COC(=O)NC2=C(c3ccc(C(C)(C)C)cc3)c3cccn3CCC2)cc1 [Example 89, (E)-4-Methoxybenzyl 9-(4-tert-butylphenyl)-6,7-dihydro-5H-pyrrolo[1,2-a]azepin-8-ylcarbamate] | > 1000 | − (− indicates < 10-fold) |
